Where two headings read alike, the source gives them in different places.
What was measured:
[1] = In vitro bioconversion of pro-drug to parent drug in mouse blood, plasma, liver and kidney extract; assay type: in vitro ADME; details: for Peak Area of pro-drug: 37° C. heating block
Description: Compound concentrations were normalized to parent drug content by multiplying by a ratio of the relative molecular weights. Time 0 (minute) samples were prepared by immediately diluting with an equal volume of acetonitrile, vortexing, and transferring the samples to ice. […] Representative compounds of the present invention and the parent compound were analyzed by reversed-phase HPLC using an Agilent 1100 system. […] The solvent flow rate was 1 mL/min, and the column temperature was 40° C. Compound and parent peak identification was by diode array detection, monitored at 300 nm Conversion of the compounds (prodrugs) to parent drug was estimated by peak areas (A300 nm, mAU) of the respective agents. Mouse whole blood and plasma were collected from Swiss Webster mice, and stored at 4° C. until use (within 48 hours). […] For these experiments, fresh whole mouse livers or kidneys were homogenized for approximately 30 seconds (Omni-Tip™ disposable homogenizer tip) in 1 mL sterile saline and immediately stored on ice. Crude extracts (non-centrifuged) were incubated with the test compound or parent (20 μg/mL) and processed as described above.

[2] = Rat pharmacokinetics; assay type: in vivo, Sprague-Dawley rats; details: in vivo, iv
Description: Male Sprague-Dawley rats (n=4) were fasted overnight, then dosed intravenously (IV) with a 1 mg/mL solution of a compound of the present invention (prodrug) or parent (compound of formula (M)) in 20% hydroxypropyl-β-cyclodextrin at 2 mg/kg. Blood samples were collected up to 24 hours post dose into tubes containing an anticoagulant. Blood samples were centrifuged for cell removal, and 100 μL plasma was transferred to a clean vial, placed on dry ice, and stored in a −70° C. freezer prior to analysis.
Plasma samples were prepared as follows. Two volumes of acetonitrile containing formic acid and internal standard were added to one volume of plasma to precipitate proteins. Samples were centrifuged (3000 g for 5 min) and supernatant removed for analysis by LC-MS-MS. Calibration standards were prepared by adding appropriate volumes of stock solution directly into plasma and treated identically to collected plasma samples. LC-MS-MS analysis was performed utilizing multiple reaction monitoring for detection of characteristic ions for the test compounds (pro-drugs), parent (compound of formula (M)) and internal standard.
Plasma concentrations were measured as described above to determine a concentration vs time profile. The area under the plasma concentration vs time curve (AUC) was calculated using the linear trapezoidal method. Fitting of the data to obtain pharmacokinetic parameters was carried out using non-compartmental analysis, with results as listed in Table 14, below. The term “NA” means the data was not available.

[3] = tested on: Staphylococcus aureus (OC8525), a methicillin-resistant strain (MRSA); experiment: In vivo efficacy in a mouse systemic infection model; details: Staphylococcus aureus, 72 h, Swiss Webster mice infected i.p. with MRSA, 3 day survival, normalized to parent content
Description: Female Swiss Webster mice weighing between 20-25 g were infected intraperitoneally with approximately 5×10^5 colony forming units (CFU) Staphylococcus aureus (OC8525), a methicillin-resistant strain (MRSA), in 7% mucin. One hour later, the animals were given the test compound intravenously or orally in a dose volume of 0.2 mL. Each animal test group consisted of eight animals. The test compounds were prepared immediately before dosing in 5% dextrose in water (D5W) and diluted further in D5W for i.v. and p.o. administration. The mice were observed over a three day period and ED50 values were calculated from the resulting % survival curves (see Table 13, below). The measured ED50 values were normalized to the content of (E)-7-(3-(2-amino-1-fluoroethylidene)piperidin-1-yl)-1-cyclopropyl-6-fluoro-8-methoxy-4-oxo-1,4-dihydroquinoline-3-carboxylic acid. For some compounds, in vivo efficacy was determined by testing a group of eight mice at a single dose level only. In these cases, the data presented in Table 13, below are reported as percent survival at the designated dose.

[4] = Aqueous solubility, modified procedure (saturated solutions, RP-HPLC); assay type: physicochemical; details: thermodynamic from solid, 100 mM phosphate buffer
Description: In these cases, the samples were targeted at a pH of 4 and 7 and were measured exclusively using 100 mM phosphate buffers. For both pH's, measured samples were initially prepared at ˜3 mg/ml and ˜10 mg/ml concentrations and for samples that dissolved rapidly, additional compound was added to the solution until saturated solutions were obtained.

[5] = In vitro bioconversion of pro-drug to parent drug in human blood and plasma; assay type: in vitro ADME; details: for Peak Area of pro-drug: 37° C.
Description: Compounds #1, #4, #6, #15, and #16, as well as the parent drug [(E)-7-(3-(2-amino-1-fluoroethylidene)piperidin-1-yl)-1-cyclopropyl-6-fluoro-8-methoxy-4-oxo-1,4-dihydroquinoline-3-carboxylic acid] (the compound of formula (M)) were dissolved to 1 mg/mL, and diluted to 20 ng/mL in fresh, chilled (4° C.) human or mouse whole blood or plasma, or kidney and liver extract (prepared from the respective fresh mouse organs as described below). Compound concentrations were normalized to parent drug content by multiplying by a ratio of the relative molecular weights. Time 0 (minute) samples were prepared by immediately diluting with an equal volume of acetonitrile, vortexing, and transferring the samples to ice. For additional time points, samples were placed in an incubator (Tables 4 and 5), or in a heating block (Tables 6-12) at 37° C. for the indicated time, then immediately vortexed with an equal volume of acetonitrile and placed on ice. Samples were centrifuged and further diluted with an equal volume of water to a final concentration of 25% acetonitrile prior to analysis by HPLC; diluted samples were retained in the cooled (4° C.) HPLC sample injection chamber pending injection.
Representative compounds of the present invention and the parent compound were analyzed by reversed-phase HPLC using an Agilent 1100 system. Samples were injected onto a Zorbax SB-C18 column (3.5 μM, 4.6×150 mm) with a guard cartridge, and developed on a gradient of 15% aqueous acetonitrile in 0.1% trifluoroacetic acid to 85% aqueous acetonitrile in 0.1% trifluoroacetic acid over 10 minutes. The solvent flow rate was 1 mL/min, and the column temperature was 40° C. Compound and parent peak identification was by diode array detection, monitored at 300 nm Conversion of the compounds (prodrugs) to parent drug was estimated by peak areas (A300 nm, mAU) of the respective agents.
For studies with Compounds #1, #4 and #6 (with results as listed in Tables 8, 9 and 10), fresh human whole blood and plasma samples were purchased from BioChemed Services, shipped in Styrofoam coolers maintained with frozen cold packs, and used within 48 hours of receipt. For studies with Compounds #15 and #16 (with results as listed in Tables 11 and 12), blood was drawn from volunteers and whole blood samples and isolated plasma prepared and immediately placed on ice. Whole blood and plasma samples were maintained at 4° C. and used within approximately 30 hours.

## COc1c(N2CCC/C(=C(\F)CNC(=O)[C@@H]3CCCN3C(=O)[C@@H](N)CCCCN)C2)c(F)cc2c(=O)c(C(=O)O)cn(C3CC3)c12.Cl.Cl [Compound 15, 1-Cyclopropyl-7-[3-(2-{[(2S)-1-((2S)-2,6-diamino-hexanoyl)-pyrrolidine-2-carbonyl]-amino}-1-fluoro-ethylidene)-piperidin-1-yl]-6-fluoro-8-methoxy-4-oxo-1,4-dihydro-quinoline-3-carboxylic acid dihydrochloride]
[1]; fresh mouse blood, 0 min
  Peak Area of pro-drug: 265 mAU
[1]; fresh mouse blood, 5 min
  Peak Area of pro-drug: 75 mAU
[1]; fresh mouse blood, 7.5 min
  Peak Area of pro-drug: 36 mAU
[1]; fresh mouse blood, 10 min
  Peak Area of pro-drug: 29 mAU
[1]; fresh mouse blood, 15 min
  Peak Area of pro-drug: 17 mAU
[1]; fresh mouse blood, […]
  Peak Area of pro-drug: 123 mAU
[1]; fresh mouse plasma, 0 min
  Peak Area of pro-drug: 488 mAU
[1]; fresh mouse plasma, 5 min
  Peak Area of pro-drug: 106 mAU
[1]; fresh mouse plasma, 7.5 min
  Peak Area of pro-drug: 72 mAU
[1]; fresh mouse plasma, 10 min
  Peak Area of pro-drug: 62 mAU
[1]; fresh mouse plasma, 15 min
  Peak Area of pro-drug: 22 mAU
[1]; fresh mouse plasma, […]
  Peak Area of pro-drug: 182 mAU
[1]; mouse whole blood and plasma
  Conversion to the parent compound (summary in words): converted to the parent
[2]
  Conversion to the parent drug in vivo (in words): rapidly converted to the parent drug
[3]; oral dose 1 h later, read-out: ED50 p.o.
  ED50: > 13 mg/kg
[3]; iv, i.v. dose 1 h later, read-out: ED50 i.v.
  ED50: 1.6 mg/kg
[4]; pH 4, aqueous buffer, read-out: Aqueous Solubility pH~4
  solubility at 18 h: > 4600 µg/mL
[4]; pH 7, aqueous buffer, read-out: Aqueous Solubility pH~7
  solubility at 18 h: > 11100 µg/mL
[5]; fresh human blood (volunteers), 0 min
  Peak Area of pro-drug: 242 mAU
[5]; fresh human blood (volunteers), 5 min
  Peak Area of pro-drug: 23 mAU
[5]; fresh human blood (volunteers), 7.5 min
  Peak Area of pro-drug: 10 mAU
[5]; fresh human blood (volunteers), 10 min
  Peak Area of pro-drug: 8 mAU
[5]; fresh human blood (volunteers), 15 min
  Peak Area of pro-drug: 6 mAU
[5]; fresh human blood (volunteers), […]
  Peak Area of pro-drug: 59 mAU
[5]; fresh human plasma (volunteers), 0 min
  Peak Area of pro-drug: 330 mAU
[5]; fresh human plasma (volunteers), 5 min
  Peak Area of pro-drug: 26 mAU
[5]; fresh human plasma (volunteers), 7.5 min
  Peak Area of pro-drug: 14 mAU
[5]; fresh human plasma (volunteers), 10 min
  Peak Area of pro-drug: 10 mAU
[5]; fresh human plasma (volunteers), 15 min
  Peak Area of pro-drug: 11 mAU
[5]; fresh human plasma (volunteers), […]
  Peak Area of pro-drug: 75 mAU
[5]; human whole blood and plasma
  Conversion to the parent compound (summary in words): converted to the parent

Source: patent publication US20110172193A1, “PRO-DRUGS OF (E)-7-(3-(2-AMINO-1-FLUOROETHYLIDENE)PIPERIDIN-1-YL)-1-CYCLOPROPYL-6-FLUORO-8-METHOXY-4-OXO-1,4-DIHYDROQUINOLINE-3-CARBOXYLIC ACID” (priority 2010, published 2011)
